From patent US20090298820A1, “3-SUBSTITUTED-1H-PYRROLO[2,3-B]PYRIDINE AND 3-SUBSTITUTED-1H-PYRROLO[3,2-B]PYRIDINE COMPOUNDS, THEIR USE AS MTOR KINASE AND PI3 KINASE INHIBITORS, AND THEIR SYNTHESES” (Wyeth, priority 2008, published 2009)
Where two headings read alike, the source gives them in different places.

Experiments:
Assay type in all cases: biochemical
PI3Kα = PI3Kα (Homo sapiens, UniProt P42336); assay: PI3K-alpha fluorescence polarization assay; settings: read-out: PI3Kα Median IC50
PI3Kγ = PI3Kγ (Homo sapiens, UniProt P48736); assay: PI3K-gamma fluorescence polarization assay; settings: read-out: PI3Kγ Median IC50
PI3Kγ, sequence (P48736 whole entry, species assumed): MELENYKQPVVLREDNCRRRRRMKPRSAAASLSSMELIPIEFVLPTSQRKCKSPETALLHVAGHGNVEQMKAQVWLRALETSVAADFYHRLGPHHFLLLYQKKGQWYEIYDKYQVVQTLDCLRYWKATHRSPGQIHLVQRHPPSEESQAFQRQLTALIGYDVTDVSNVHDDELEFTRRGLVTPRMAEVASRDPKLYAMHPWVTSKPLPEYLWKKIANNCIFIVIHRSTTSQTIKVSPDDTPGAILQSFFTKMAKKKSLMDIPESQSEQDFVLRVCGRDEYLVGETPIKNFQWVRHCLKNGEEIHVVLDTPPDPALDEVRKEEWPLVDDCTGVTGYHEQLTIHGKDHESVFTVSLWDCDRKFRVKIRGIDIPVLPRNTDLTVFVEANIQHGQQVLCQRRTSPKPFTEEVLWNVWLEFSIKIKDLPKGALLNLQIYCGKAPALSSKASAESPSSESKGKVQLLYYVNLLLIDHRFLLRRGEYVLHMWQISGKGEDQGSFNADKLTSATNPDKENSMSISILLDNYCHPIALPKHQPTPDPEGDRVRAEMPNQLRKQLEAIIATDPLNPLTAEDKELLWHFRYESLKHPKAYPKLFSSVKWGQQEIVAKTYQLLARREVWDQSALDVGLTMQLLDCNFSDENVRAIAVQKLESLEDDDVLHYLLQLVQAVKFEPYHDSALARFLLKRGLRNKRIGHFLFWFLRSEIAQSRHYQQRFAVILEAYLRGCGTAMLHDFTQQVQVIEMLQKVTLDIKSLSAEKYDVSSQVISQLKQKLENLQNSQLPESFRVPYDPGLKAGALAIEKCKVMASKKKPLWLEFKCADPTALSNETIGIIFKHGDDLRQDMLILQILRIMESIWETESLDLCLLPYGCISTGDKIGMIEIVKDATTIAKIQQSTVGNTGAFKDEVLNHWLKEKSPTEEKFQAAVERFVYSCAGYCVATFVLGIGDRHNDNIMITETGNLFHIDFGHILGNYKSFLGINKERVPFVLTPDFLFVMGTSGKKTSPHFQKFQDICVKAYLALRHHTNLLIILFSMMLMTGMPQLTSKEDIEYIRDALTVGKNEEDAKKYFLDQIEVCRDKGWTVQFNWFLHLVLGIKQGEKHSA

mTOR = mTOR (Homo sapiens, UniProt P42345); assay: mTOR enzyme assay (DELFIA format, His6-S6K substrate)
[1] = read-out: mTOR Kinase Median IC50

PI3Kα, sequence (P42336 whole entry, species assumed): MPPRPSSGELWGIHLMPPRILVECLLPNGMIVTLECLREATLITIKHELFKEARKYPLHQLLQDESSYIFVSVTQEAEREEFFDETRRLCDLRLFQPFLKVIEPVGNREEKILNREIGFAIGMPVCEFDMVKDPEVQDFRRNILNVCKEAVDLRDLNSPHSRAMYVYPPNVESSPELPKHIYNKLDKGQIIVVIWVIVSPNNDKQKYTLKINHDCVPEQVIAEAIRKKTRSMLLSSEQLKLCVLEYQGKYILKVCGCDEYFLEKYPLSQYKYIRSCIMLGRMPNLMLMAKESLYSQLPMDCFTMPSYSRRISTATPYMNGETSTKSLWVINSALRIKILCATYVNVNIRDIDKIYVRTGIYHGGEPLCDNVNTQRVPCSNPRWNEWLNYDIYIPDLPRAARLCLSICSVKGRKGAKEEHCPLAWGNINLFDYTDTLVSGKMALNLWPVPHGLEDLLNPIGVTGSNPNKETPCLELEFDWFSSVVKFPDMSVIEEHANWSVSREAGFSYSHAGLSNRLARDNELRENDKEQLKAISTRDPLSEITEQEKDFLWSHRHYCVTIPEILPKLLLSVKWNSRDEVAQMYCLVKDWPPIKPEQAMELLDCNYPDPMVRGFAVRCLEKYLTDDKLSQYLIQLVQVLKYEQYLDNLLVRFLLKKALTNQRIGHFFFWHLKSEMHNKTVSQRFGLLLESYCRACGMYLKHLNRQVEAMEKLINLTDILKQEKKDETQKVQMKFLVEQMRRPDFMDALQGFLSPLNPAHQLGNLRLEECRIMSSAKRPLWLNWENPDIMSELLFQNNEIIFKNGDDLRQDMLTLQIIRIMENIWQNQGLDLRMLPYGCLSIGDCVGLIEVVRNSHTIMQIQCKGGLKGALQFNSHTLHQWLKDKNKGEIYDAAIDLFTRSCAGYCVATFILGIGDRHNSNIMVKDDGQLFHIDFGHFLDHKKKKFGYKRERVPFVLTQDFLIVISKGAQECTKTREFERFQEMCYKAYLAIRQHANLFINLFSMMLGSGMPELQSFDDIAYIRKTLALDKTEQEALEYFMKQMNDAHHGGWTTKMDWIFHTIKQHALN
PI3Kα, sequence (P27986 whole entry partner, species assumed): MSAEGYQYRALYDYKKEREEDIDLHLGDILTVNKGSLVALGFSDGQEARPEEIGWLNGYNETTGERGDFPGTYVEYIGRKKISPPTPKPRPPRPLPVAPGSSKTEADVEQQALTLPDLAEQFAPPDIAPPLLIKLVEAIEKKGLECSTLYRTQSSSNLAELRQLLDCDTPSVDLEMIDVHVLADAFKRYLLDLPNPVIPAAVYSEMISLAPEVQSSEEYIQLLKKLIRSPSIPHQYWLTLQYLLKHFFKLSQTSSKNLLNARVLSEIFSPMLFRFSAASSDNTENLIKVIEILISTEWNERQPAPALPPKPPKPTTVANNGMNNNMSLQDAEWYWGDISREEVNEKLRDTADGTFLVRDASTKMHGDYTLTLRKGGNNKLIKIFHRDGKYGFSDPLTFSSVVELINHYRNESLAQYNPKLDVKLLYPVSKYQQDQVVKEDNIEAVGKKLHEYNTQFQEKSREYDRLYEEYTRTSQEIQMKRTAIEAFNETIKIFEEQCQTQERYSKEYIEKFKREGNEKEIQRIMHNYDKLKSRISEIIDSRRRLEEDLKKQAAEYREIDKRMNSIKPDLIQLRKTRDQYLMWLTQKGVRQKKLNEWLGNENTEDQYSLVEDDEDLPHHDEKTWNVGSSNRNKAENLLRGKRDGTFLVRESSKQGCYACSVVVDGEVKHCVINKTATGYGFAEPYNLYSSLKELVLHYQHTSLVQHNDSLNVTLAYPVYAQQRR

Row | Structure (SMILES) | IC50 (PI3Kα) [nM] | IC50 (PI3Kγ) [nM] | IC50 (mTOR; [1]) [nM] | IC50 (mTOR) [nM]
1 | CN(C(=O)C1CCN(c2ccnc3c2c(C=C2Oc4ccc(NC(=O)Nc5cccnc5)cc4C2=O)cn3C)CC1)[C@H]1CCNC1 [Compound 208, N-methyl-1-[1-methyl-3-({3-oxo-5-[(pyridin-3-ylcarbamoyl)amino]-1-benzofuran-2(3H)-ylidene}methyl)-H-pyrrolo[2,3-b]pyridin-4-yl]-N-[(3S)-pyrrolidin-3-yl]piperidine-4-carboxamide] | > 10000 | > 10000 | 50 | 
2 | CN(CCO)C(=O)c1ccc(-c2ccnc3c2c(/C=C2\Oc4cccc(O)c4C2=O)cn3C)cc1 [Compound 195, N-(2-hydroxyethyl)-4-{3-[(Z)-(4-hydroxy-3-oxo-1-benzofuran-2(3H)-ylidene)methyl]-1-methyl-1H-pyrrolo[2,3-b]pyridin-4-yl}-N-methylbenzamide] | 140 | 234 | 4.3 | 
3 | Cn1cc(/C=C2\Oc3cc(O)cc(O)c3C2=O)c2c(-c3ccc(C(=O)N4CCCC4)cc3)ccnc21 [Compound 92, (2Z)-4,6-dihydroxy-2-({1-methyl-4-[4-(pyrrolidin-1-ylcarbonyl)phenyl]-1H-pyrrolo[2,3-b]pyridin-3-yl}methylene)-1-benzofuran-3(2H)-one] | 9 | 54 | 0.2 | 
4 | COc1ccc(-c2ccnc3c2c(/C=C2\Oc4cc(O)cc(O)c4C2=O)cn3C)cc1S(=O)(=O)N1CCOCC1 [Compound 88, (2Z)-4,6-dihydroxy-2-({4-[4-methoxy-3-(morpholin-4-ylsulfonyl)phenyl]-1-methyl-1H-pyrrolo[2,3-b]pyridin-3-yl}methylene)-1-benzofuran-3(2H)-one] | 8 | 27 | 0.2 | 
5 | CON(C)C(=O)c1ccc(-c2ccnc3c2c(/C=C2\Oc4cccc(O)c4C2=O)cn3C)cc1 [Compound 196, 4-{3-[(Z)-(4-hydroxy-3-oxo-1-benzofuran-2(3H)-ylidene)methyl]-1-methyl-1H-pyrrolo[2,3-b]pyridin-4-yl}-N-methoxy-N-methylbenzamide] | 41 | 66 | 1 | 
6 | COC1CCN(C(=O)C2CCN(c3ccnc4c3c(/C=C3\Oc5ccc(NC(=O)Nc6cccnc6)cc5C3=O)cn4C)CC2)C1 (stereo not drawn) [Compound 275, 1-{(2Z)-2-[(4-{4-[(3-methoxypyrrolidin-1-yl)carbonyl]piperidin-1-yl}-1-methyl-1H-pyrrolo[2,3-b]pyridin-3-yl)methylidene]-3-oxo-2,3-dihydro-1-benzofuran-5-yl}-3-pyridin-3-ylurea] | 1610 | 1330 | 13 | 
7 | Cn1cc(/C=C2\Oc3cc(O)cc(O)c3C2=O)c2c(-c3cccc(NS(C)(=O)=O)c3)ccnc21 [Compound 18, N-(3-{3-[(Z)-(4,6-dihydroxy-3-oxo-1-benzofuran-2(3H)-ylidene)methyl]-1-methyl-1H-pyrrolo[2,3-b]pyridin-4-yl}phenyl)methanesulfonamide] | 19 | 106 | 2.7 | 
8 | Cn1cc(/C=C2\Oc3cccc(O)c3C2=O)c2c(N3CC4COC(C3)O4)ccnc21 (stereo not drawn) [Compound 165, (2Z)-2-{[4-(6,8-dioxa-3-azabicyclo[3.2.1]oct-3-yl)-1-methyl-1H-pyrrolo[2,3-b]pyridin-3-yl]methylidene}-4-hydroxy-1-benzofuran-3(2H)-one] | 25 | 144 | 2.7 | 
9 | Cn1cc(/C=C2\Oc3ccc(NC(=O)Nc4ccc(CN5CCCCC5)cc4)cc3C2=O)c2c(N3CC4CCC(C3)O4)ccnc21 [Compound 278, 1-[(2Z)-2-{[1-methyl-4-(8-oxa-3-azabicyclo[3.2.1]oct-3-yl)-1H-pyrrolo[2,3-b]pyridin-3-yl]methylidene}-3-oxo-2,3-dihydro-1-benzofuran-5-yl]-3-[4-(piperidin-1-ylmethyl)phenyl]urea] | 743 | 450 | 23 | 
10 | Cc1cccc(CN(C)C(=O)C2CCN(c3ccnc4c3c(/C=C3\Oc5ccc(NC(=O)Nc6cccnc6)cc5C3=O)cn4C)CC2)n1 [Compound 225, N-methyl-1-{1-methyl-3-[(Z)-{3-oxo-5-[(pyridin-3-ylcarbamoyl)amino]-1-benzofuran-2(3H)-ylidene}methyl]-1H-pyrrolo[2,3-b]pyridin-4-yl}-N-[(6-methylpyridin-2-yl)methyl]piperidine-4-carboxamide] | 2320 | 1920 |  | 49

Further molecules by falling IC50 (PI3Kα), results first:

Row | IC50 (PI3Kα) [nM] | IC50 (PI3Kγ) [nM] | IC50 (mTOR; [1]) [nM] | Structure (SMILES) | IC50 (mTOR) [nM]
11 | 703 | > 10000 | 31.5 | CN1CCN(c2ccc(NC(=O)Nc3ccc4c(c3)C(=O)/C(=C/c3cn(C)c5nccc(N6CC7CCC(C6)O7)c35)O4)cn2)CC1 [Compound 231, 1-[(2Z)-2-{[1-methyl-4-(8-oxa-3-azabicyclo[3.2.1]oct-3-yl)-1H-pyrrolo[2,3-b]pyridin-3-yl]methylidene}-3-oxo-2,3-dihydro-1-benzofuran-5-yl]-3-[6-(4-methylpiperazin-1-yl)pyridin-3-yl]urea] | 
12 | 391 | 980 | 35.5 | Cn1cc(/C=C2\Oc3ccc(Br)cc3C2=O)c2c(N3CC4CCC(C3)O4)ccnc21 [Compound 59, (2Z)-5-bromo-2-{[1-methyl-4-(8-oxa-3-azabicyclo[3.2.1]oct-3-yl)-1H-pyrrolo[2,3-b]pyridin-3-yl]methylene}-1-benzofuran-3(2H)-one] | 
13 | 311 | 668 | 57 | CCNC(=O)Nc1ccc2c(c1)C(=O)/C(=C/c1cn(C)c3nccc(N4CC5CCC(C4)O5)c13)O2 [Compound 61, 1-ethyl-3-[(2Z)-2-{[1-methyl-4-(8-oxa-3-azabicyclo[3.2.1]oct-3-yl)-1H-pyrrolo[2,3-b]pyridin-3-yl]methylene}-3-oxo-2,3-dihydro-1-benzofuran-5-yl]Urea] | 
14 | 147 | 148 | 11.4 | CN1CCN(c2ccc(-c3ccnc4c3c(/C=C3\Oc5cccc(O)c5C3=O)cn4C)cc2)CC1 [Compound 57, (2Z)-4-hydroxy-2-({1-methyl-4-[4-(4-methylpiperazin-1-yl)phenyl]-1H-pyrrolo[2,3-b]pyridin-3-yl}methylene)-1-benzofuran-3(2H)-one] | 
15 | 116 | 79 | 1.2 | Cn1cc(/C=C2\Oc3cc(O)cc(O)c3C2=O)c2c(-c3cccc(Cl)c3)ccnc21 [Compound 13, (2Z)-2-{[4-(3-chlorophenyl)-1-methyl-1H-pyrrolo[2,3-b]pyridin-3-yl]methylene}-4,6-dihydroxy-1-benzofuran-3(2H)-one] | 
16 | 64 | 281 | 24.8 | Cn1cc(/C=C2\Oc3cccc(O)c3C2=O)c2c(-c3ccc(N4CCOCC4)nc3)ccnc21 [Compound 69, (2Z)-4-hydroxy-2-{[1-methyl-4-(6-morpholin-4-ylpyridin-3-yl)-1H-pyrrolo[2,3-b]pyridin-3-yl]methylene}-1-benzofuran-3(2H)-one] | 
17 | 46 | 183 | 72 | CNC(=O)Nc1ccc2c(c1)C(=O)/C(=C/c1c[nH]c3ncc(OC)cc13)O2 [Compound 119, 1-{(2Z)-2-[(5-methoxy-1H-pyrrolo[2,3-b]pyridin-3-yl)methylene]-3-oxo-2,3-dihydro-1-benzofuran-5-yl}-3-methylurea] | 
